According to patent US12065428B2, “Anti-viral compounds” (Aligos Therapeutics, Inc., priority 2021, dated 2024):
Like-named read-outs stand apart in the source and are kept apart here.

Key:
SARS-Cov-2 3CLpro = molecular target: T1, SARS-Cov-2 3CLpro (Severe acute respiratory syndrome coronavirus 2, UniProt P0DTD1); test: SARS-Cov-2 3CLpro and HRV3C duplex assay (SAMDI-MS): 3CLpro; assay type: biochemical; conditions: 3CLpro, duplex assay, 30 mins preincubation; class symbols; read-out: SARS-Cov-2 IC50
T1 construct: SARS-Cov-2 3CLpro and HRV3C Duplex Assay

HRV3C = molecular target: T2, HRV3C (Human rhinovirus 14, UniProt P03303); test: biochemical; conditions: read-out: HRV IC50
T2 construct: SARS-Cov-2 3CLpro and HRV3C Duplex Assay
T2 sequence (P03303 1538-1719): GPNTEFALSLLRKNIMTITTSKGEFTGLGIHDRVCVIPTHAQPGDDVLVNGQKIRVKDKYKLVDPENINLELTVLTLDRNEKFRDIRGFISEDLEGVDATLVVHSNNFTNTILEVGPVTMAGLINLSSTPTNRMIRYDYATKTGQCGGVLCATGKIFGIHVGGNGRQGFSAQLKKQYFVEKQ

[1] = tested on: human beta-coronavirus OC43; test: OC43 coronavirus assay in HeLa cells (cytopathic effect, cell-titer-glo); assay type: cell-based; conditions: Betacoronavirus 1, 144 h; OC43 in HeLa cells, 6 days at 33° C.; class symbols; read-out: EC50
[2] = Cytotoxicity plates without OC43 virus in HeLa cells; assay type: cell-based; conditions: human, HeLa cells (uninfected)
Description: The human beta-coronavirus OC43 was purchased from ATCC (Manassas, VA) and propagated using HCT-8 human colorectal epithelial cells (ATCC). HeLa human cervical epithelial cells (ATCC) were used as susceptible host cell lines and were cultured using EMEM media, supplemented with 10% fetal bovine serum (FBS), 1% (v/v) penicillin/streptomycin (P/S), 1% (v/v) HEPES and 1% (v/v) cellgro Glutagro™ supplement (all Corning, Manassas, VA) at 37° C. For the OC43 antiviral assay, 1.5×10^4 HeLa cells per well were plated in 100 μL complete media in white 96-well plates with clear bottoms at 37° C. for up to 24 h to facilitate attachment and allow cells to recover from seeding stresses. Next day, the cell culture medium was removed. Serially diluted compounds in 100 μL assay media (EMEM, 2% FBS, 1% P/S, 1% cellgro Glutagro™ supplement, 1% HEPES) were added to the cells and incubated for 4H at 37° C. in a humidified 5% CO2 incubator. 100 μL of OC43 virus stock was diluted to a concentration known to produce optimal cytopathic effect, inducing 80-90% reduction in cell viability. 96-well plates were incubated for 6 (HeLa) days at 33° C.; each plate contains uninfected control wells as well as virus-infected wells that were not treated with compound. Cytotoxicity plates without the addition of OC43 virus were carried out in parallel. At the end of the incubation period, 100 μL cell culture supernatant was replaced with 100 μL cell-titer-glo reagent (Promega, Madison, WI) and incubated for at least 10 min at rt prior to measuring luminescence. Luminescence was measured on a Perkin Elmer (Waltham, MA) Envision plate reader. Antiviral % inhibition was calculated as follows: [(Compound treated cells infected sample)−(no compound infected control)]/[(Uninfected control)−(no compound infected control)]*100; Using GraphPad (San Diego, CA) prism software version 8.3.1, the antiviral dose-response plot was generated as a sigmoidal fit, log(inhibitor) vs response-variable slope (four parameters) model and the EC50 was calculated which is the predicted compound concentration corresponding to a 50% inhibition of the viral cytopathic effect.

[3] = tested on: SARS-CoV-2-GHB-03021/2020; test: microbe, parasite or virus in culture; assay type: cell-based; conditions: Severe acute respiratory syndrome coronavirus 2, Vero C1008, 96 h; read-out: VeroE6 + CP (EC50)
human cathepsin L = molecular target: T3, human cathepsin L (Homo sapiens, UniProt P07711); test: Cathepsin L assay (Z-FR-AMC fluorescence); assay type: biochemical; conditions: 10 pM human cathepsin L, 30 mins preincubation; class symbols
T3 construct: purchased R&D Systems
T3 sequence (P07711 114-333): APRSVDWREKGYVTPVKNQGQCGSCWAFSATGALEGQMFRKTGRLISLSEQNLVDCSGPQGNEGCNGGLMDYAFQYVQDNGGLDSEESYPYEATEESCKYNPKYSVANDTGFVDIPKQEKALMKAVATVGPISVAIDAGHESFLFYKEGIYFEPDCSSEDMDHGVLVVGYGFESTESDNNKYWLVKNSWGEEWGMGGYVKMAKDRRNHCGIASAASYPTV
Description: For the cathepsin L assay, 10 pM of human cathepsin L (R&D Systems; Minneapolis, MN) was preincubated for 30 mins with test compounds. Reactions were initiated by the addition of a peptide substrate Z-FR-AMC (final concentration 2 μM, Anaspec; Fremont, CA). Fluorescence was measured at 2-minute intervals for 30 mins using a 355/460 excitation/emission filter module on an Envision plate reader (Perkin Elmer; Waltham, MA). The IC50 values were calculated for each assay by fitting the curves using a four-parameter equation in GraphPad Prism.

[4] = HRV3C, duplex assay, 30 mins preincubation, class symbols

O=C(NC1CC1)C(=O)C(C[C@@H]1CCNC1=O)NC(=O)[C@@H]1[C@@H]2C[C@@H](CC23CC3)N1C(=O)c1ncc(-c2ccccc2)s1 (stereo partly drawn) [Compound 49, N-cyclopropyl-2-oxo-4-[(3S)-2-oxopyrrolidin-3-yl]-3-[(1R,4S,6S)-5-(5-phenyl-1,3-thiazole-2-carbonyl)-5-azaspiro[bicyclo[2.2.1]heptane-2,1′-cyclopropan]-6-ylformamido]butanamide]
IC50 (SARS-Cov-2 3CLpro): 20 to 200 nM
IC50 (HRV3C; [4]): 2000 to 20000 nM
EC50 [1]: 100 to 1000 nM
CC50 at 6 days ([2]; numeric bound, unit inferred): > 100000 nM
EC50 [3]: < 1000 nM
IC50 (human cathepsin L): ≥ 10000 nM

Cn1c(C(=O)N2CCC3(CC3)C[C@H]2C(=O)N[C@H](C#N)C[C@@H]2CCNC2=O)cc2ccccc21 [Example 5, (S)—N—((S)-1-cyano-2-((S)-2-oxopyrrolidin-3-yl)ethyl)-6-(1-methyl-1H-indole-2-carbonyl)-6-azaspiro[2.5]octane-5-carboxamide]
IC50 (SARS-Cov-2 3CLpro): 200 to 2000 nM
IC50 (HRV3C): > 10000 nM
EC50 [1]: 1000 to 10000 nM
CC50 at 6 days ([2]; class symbols): ≥ 100000 nM
EC50 [3]: 1000 to 10000 nM
IC50 (human cathepsin L): ≥ 10000 nM

O=C(NC1CC1)C(=O)[C@H](C[C@@H]1CCNC1=O)NC(=O)[C@@H]1CC2(CCN1C(=O)c1ncc(-c3ccccc3)s1)CC2 [Example 1, (S)—N—((S)-4-(cyclopropylamino)-3,4-dioxo-1-((S)-2-oxopyrrolidin-3-yl)butan-2-yl)-6-(5-phenylthiazole-2-carbonyl)-6-azaspiro[2.5]octane-5-carboxamide]
IC50 (SARS-Cov-2 3CLpro): 20 to 200 nM
IC50 (HRV3C; [4]): 200 to 2000 nM
EC50 [1]: 100 to 1000 nM
CC50 at 6 days ([2]; class symbols): 10000 to 100000 nM
EC50 [3]: < 1000 nM
IC50 (human cathepsin L): ≥ 10000 nM

Cn1c(C(=O)N2CCC3(CC3)C[C@H]2C(=O)N[C@@H](C[C@@H]2CCNC2=O)C(=O)CO)cc2ccccc21 [Example 2, (S)—N—((S)-4-hydroxy-3-oxo-1-((S)-2-oxopyrrolidin-3-yl)butan-2-yl)-6-(1-methyl-1H-indole-2-carbonyl)-6-azaspiro[2.5]octane-5-carboxamide]
IC50 (SARS-Cov-2 3CLpro): 20 to 200 nM
IC50 (HRV3C): > 10000 nM
EC50 [1]: 1000 to 10000 nM
CC50 at 6 days ([2]; class symbols): ≥ 100000 nM
EC50 [3]: 1000 to 10000 nM
IC50 (human cathepsin L): ≥ 10000 nM

O=C(NC1CC1)C(=O)C(C[C@@H]1CCNC1=O)NC(=O)[C@@H]1CC2(CCN1C(=O)c1noc(-c3ccccc3)n1)CC2 (stereo partly drawn) [Compound 18, N-cyclopropyl-2-oxo-4-[(3S)-2-oxopyrrolidin-3-yl]-3-{[(5S)-6-(5-phenyl-1,2,4-oxadiazole-3-carbonyl)-6-azaspiro[2.5]octan-5-yl]formamido}butanamide]
IC50 (SARS-Cov-2 3CLpro): 20 to 200 nM
IC50 (HRV3C; [4]): 200 to 2000 nM
EC50 [1]: 1000 to 10000 nM
CC50 at 6 days ([2]; class symbols): ≥ 100000 nM
EC50 [3]: 1000 to 10000 nM
IC50 (human cathepsin L): ≥ 10000 nM

O=C(NC1CC1)C(=O)C(C[C@@H]1CCNC1=O)NC(=O)[C@@H]1CC2(CCN1C(=O)c1cnn(-c3ccccc3)n1)CC2 (stereo partly drawn) [Compound 24]
IC50 (SARS-Cov-2 3CLpro): 200 to 2000 nM
IC50 (HRV3C; [4]): 200 to 2000 nM
EC50 [1]: 1000 to 10000 nM
CC50 at 6 days ([2]; class symbols): ≥ 100000 nM
EC50 [3]: 1000 to 10000 nM
IC50 (human cathepsin L): ≥ 10000 nM

O=C(NC1CC1)C(=O)[C@H](C[C@@H]1CCNC1=O)NC(=O)[C@@H]1CC2(CCN1C(=O)[C@H]1CCCc3ccccc31)CC2 [Compound 33]
IC50 (SARS-Cov-2 3CLpro): 20 to 200 nM
IC50 (HRV3C; [4]): 200 to 2000 nM
EC50 [1]: 1000 to 10000 nM
CC50 at 6 days ([2]; class symbols): ≥ 100000 nM
EC50 [3]: < 1000 nM
IC50 (human cathepsin L): ≥ 10000 nM

Cn1c(C(=O)N2CCC3(CC3)C[C@H]2C(=O)N[C@@H](C[C@@H]2CCNC2=O)C(=O)C(=O)NC2CC2)cc2ccc(Cl)cc21 [Compound 31]
IC50 (SARS-Cov-2 3CLpro): < 20 nM
IC50 (HRV3C; [4]): 2000 to 20000 nM
EC50 [1]: 100 to 1000 nM
CC50 at 6 days ([2]; class symbols): ≥ 100000 nM
EC50 [3]: < 1000 nM
IC50 (human cathepsin L): ≥ 10000 nM

O=C(NC1CC1)C(=O)[C@H](C[C@@H]1CCNC1=O)NC(=O)[C@@H]1CC2(CCN1C(=O)c1nc(C3CCCCC3)cs1)CC2 [Compound 46]
IC50 (SARS-Cov-2 3CLpro): 200 to 2000 nM
IC50 (HRV3C): > 10000 nM
EC50 [1]: 100 to 1000 nM
CC50 at 6 days ([2]; numeric bound, unit inferred): > 100000 nM
EC50 [3]: 1000 to 10000 nM
IC50 (human cathepsin L): 1000 to 10000 nM
